Laboratory results reported in publication doi:10.1101/2022.10.01.510427v1 (biorxiv, 2022).

Target: T1, Gaussia luciferase (GLuc) (Gaussia princeps (in: crustaceans), UniProt Q9BLZ2)
T1 sequence (Q9BLZ2 18-185): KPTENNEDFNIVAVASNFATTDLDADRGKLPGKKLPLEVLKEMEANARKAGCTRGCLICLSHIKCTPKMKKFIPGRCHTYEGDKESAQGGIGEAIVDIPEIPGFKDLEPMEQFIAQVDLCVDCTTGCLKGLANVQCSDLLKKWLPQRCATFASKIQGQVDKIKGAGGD
Experiment: bioluminescence inhibition assay
Assay type: biochemical

IC50: 10 to 100 µM
Structure (SMILES): O=c1n(Cc2ccc(O)cc2)nc2c(Cc3ccccc3)nc(-c3ccc(O)cc3)cn12 [Aza-CTZ]
